In PMC8309042, “Antimelanogenesis Effects of Leaf Extract and Phytochemicals from Ceylon Olive (Elaeocarpus serratus) in Zebrafish Model” (Pharmaceutics, 2021):
Where two headings read alike, the source gives them in different places.

How the values were obtained:
[1] = system: mushroom tyrosinase; assay: Enzyme kinetic study (Lineweaver–Burk plot); assay type: biochemical; settings: for Potential (trend of Vmax with concentration): 0-100 μg/mL; for Inhibition Type: L-tyrosine and L-DOPA substrates, Lineweaver–Burk
Method: Enzyme kinetic study is analyzed by the Lineweaver–Burk reciprocal plot of the reaction rate and the concentration of the substrate to evaluate the effect of the specimen on the affinity of the substrate and enzyme. […] The reaction was similar to antityrosinase assay as described above; 40 µL of specimen solution and 70 µL of potassium phosphate buffer (0.1 M, pH 6.8) were mixed, which was followed by adding 50 µL of 200 unit/mL tyrosinase, after incubation at 25 °C for 10 min.

[2] = system: zebrafish embryo; assay: Antimelanogenesis effect in zebrafish embryos (melanin content by ImageJ); assay type: in vivo, zebrafish (Danio rerio); settings: for IC50: Danio rerio, read-out: IC50 of melanogenesis inhibition activity in zebrafish; for effect on melanogenesis of zebrafish: concentration 50 μM
Method: Zebrafish (Danio rerio) of wild-type AB strain were maintained in a healthy aquatic environment at 26–30 °C, with a 14:10 h light–dark cycle. After 9 h post fertilization (hpf), embryos were placed into a 24-well plate (3 embryos per well), treated with various final concentrations of specimens dissolved in 1% DMSO, and incubated at 28 °C for 48 h (at 57 hpf). The digital image of live zebrafish embryo was taken through a stereomicroscope (Olympus SZ61, Tokyo, Japan) at a total magnification of 40×; then, the melanin content of zebrafish embryo was analyzed by the ImageJ software. […] The number of replications was six.

[3] = embryos treated 9 hpf to 57 hpf (48 h)

| Potential (trend of Vmax with concentration) ([1]; L-DOPA substrate) | Potential (trend of Vmax with concentration) ([1]; L-Tyrosine substrate) | Inhibition Type [1] | Inhibition Type ([1]; listed as gallic acid) | Inhibition Type ([1]; listed as mearnsetin) | Structure (SMILES) | IC50 [2, 3] | effect on melanogenesis of zebrafish [2] | IC50 ([2]; embryos treated 9 hpf to 57 hpf (48 h), dash defined in footnote) | IC50 ([2]; 48 h) |
| --- | --- | --- | --- | --- | --- | --- | --- | --- | --- |
| ↓ | ↓ | mixed-type inhibitor |  |  | O=c1c(O)c(-c2cc(O)c(O)c(O)c2)oc2cc(O)cc(O)c12 [Myricetin] | 350 ± 42.7 µM | slight melanin inhibition effect |  |  |
| ― | ― | Competitive |  | competitive inhibitor | COc1c(O)cc(-c2oc3cc(O)cc(O)c3c(=O)c2O)cc1O [Mearnsetin, 4′-O-methyl myricetin] | 121 ± 0.96 µM | better melanogenesis inhibition activity |  |  |

The remaining lines, values behind:

| Structure (SMILES) | Potential (trend of Vmax with concentration) ([1]; L-DOPA substrate) | Potential (trend of Vmax with concentration) ([1]; L-Tyrosine substrate) | Inhibition Type [1] | Inhibition Type ([1]; listed as gallic acid) | Inhibition Type ([1]; listed as mearnsetin) | IC50 [2, 3] | effect on melanogenesis of zebrafish [2] | IC50 ([2]; embryos treated 9 hpf to 57 hpf (48 h), dash defined in footnote) | IC50 ([2]; 48 h) |
| --- | --- | --- | --- | --- | --- | --- | --- | --- | --- |
| O=C(O)c1cc(O)c(O)c(O)c1 [Gallic acid] | ― | ― | Competitive | competitive inhibitor |  |  |  | > 400 µM |  |
| NC(=S)Nc1ccccc1 [PTU, 1-phenyl-2-thiourea, reference compound] |  |  |  |  |  |  | could reduce the melanin formation |  | 26.3 ± 4.17 µM |
| OC[C@H]1O[C@@H](Oc2ccc(O)cc2)[C@H](O)[C@@H](O)[C@@H]1O [Arbutin, arbutin, reference compound] |  |  |  |  |  | 324 ± 19.8 µM | could reduce the melanin formation |  |  |
